Measured values published in patent publication US8936941B2, “Compositions useful for cancer detection and treatment, a cancer stem cell model, and methods of production and use thereof” (priority 2008, dated 2015).
“Also recorded” adds a separate entry of the source.

Assays:
PICSCs [1] = experiment: LIVE/DEAD Viability/Cytotoxicity Assay on PICSCs; assay type: cell-based, mouse; details: 48 hours, single agent
Experimental: This Example is directed to stem cell assays utilizing PICSCs generated in accordance with the presently disclosed and claimed inventive concept(s). The PICSCs were generated as described herein above (i.e., transformation of NIH-3T3 cells with RBM3 gene, followed by transplantation into a nude mouse, then sorting of cells obtained from generated tumors utilizing DCAMKL-1).
The PICSCs were exposed to various compounds/anti-cancer agents, and cell viability assays were then performed using the LIVE/DEAD® Viability/Cytotoxicity Assay from Molecular Probes/Invitrogen (Eugene, Oreg.). The LIVE/DEAD® Viability/Cytotoxicity Assay is an assay that provides a two-color fluorescence cell viability that is based on the simultaneous determination of both live and dead cells.
Briefly, PICSCs cells were grown in a 96 well microtitre plate ([…], Newton, N.C.) to about 40% confluency and treated with anti-cancer agents/compounds for 48 hours. Subsequently, chromogenic substrates Calcein AM and Ethidium homodimer-1 (EthD-1) was added to the cells. Calcein AM is well retained within the live cells, producing uniform green fluorescence in live cells (measured at 515 nM). EthD-1 enters cells with damaged membranes and undergoes an enhancement of fluorescence upon binding to nucleic acids, thereby producing a bright red fluorescence in dead cells (measured at 617 nM). The fluorescence measurement was carried out using a microtitre plate reader (Synergy HT, BIO-TEK, Vinooski, Vt.).
In FIGS. 70-84, the PICSCs were treated with increasing concentrations of various compounds or combinations of compounds for 48 hours, and the data presented therein is represented as a % Dead/Live cells ratio following said treatment. […] Values in each figure are given as average±Standard Error Mean, and asterisks denote statistically significant differences (*p<0.01) compared with control.

PICSC tumor xenografts = experiment: PICSC generated isograft tumor growth in mice; assay type: in vivo; details: mouse, in vivo
Experimental: To determine whether targeted DCAMKL-1 downregulation and/or Notch inhibition affected […] generated isograft tumor growth, mice were treated with siRNA to DCAMKL-1 or the Notch inhibitor DAPT. After the tumors were allowed to develop (15 days), siRNA was injected a total of 5 times at an interval of 3 days as described earlier.

PICSCs [2] = experiment: Growth and survival of PICSCs after drug treatment; assay type: cell-based, mouse
Experimental: The PICSCs cells were treated with 100 μM drug (suprapharmacological dose) for 48 hours, and their growth and survival were evaluated. […] Moreover, the in vitro testing strategies allows for a mechanistic study of such compounds.

HCT116 tumor xenografts = experiment: HCT116 tumor xenograft model in athymic nude mice, intratumoral treatment; assay type: in vivo; details: HCT 116-induced tumor xenograft, via induction of apoptosis
Description: Real-time reverse transcription-PCR analyses. Total RNA isolated either from cells or from human colon cancer cell tumor xenograft samples was subjected to reverse transcription with Superscript™ II RNase H—Reverse Transcriptase and random hexanucleotide primers (Invitrogen, Carlsbad, Calif.). The cDNA was subsequently used to perform Real-time PCR by SYBR chemistry (SYBR® Green I; Molecular Probes) for specific transcripts using gene specific primers and Jumpstart Taq DNA polymerase (Sigma-Aldrich, St. Louis, Mo.). […] The changes in mRNA were expressed as fold change relative to control with ±SEM value.
miRNA analysis. Total miRNA was isolated using mirVana™ miRNA isolation kit (Ambion Inc.). Total miRNA isolated either from cells or from human colon cancer cell tumor xenograft samples were subjected to reverse transcription with Superscript™ II RNase H—Reverse Transcriptase and random hexanucleotide primers (Invitrogen, Carlsbad, Calif.). The cDNA was subsequently used to perform Real-time PCR by SYBR chemistry (SYBR® Green I; Molecular Probes) for pri-let-7a transcript using specific primers and Jumpstart Taq DNA polymerase (Sigma-Aldrich, St. Louis, Mo.). […] The changes in pri-miRNA were expressed as fold change relative to control with ±SEM value. Primers used are: […]
Western Blot analysis. HCT116 and SW480 cells were cultured in a 6 well plates to 40% confluency and were transfected with si-DCAMKL-1 or si-Scr for 72 h. Cells or the tumor xenograft samples were lysed and the concentration of protein was determined by BCA protein assay kit (Pierce Biotechnology Inc., Rockford, Ill.). […] The membrane was blocked in 5% non-fat dry milk for 1 h and probed overnight with a rabbit anti-DCAMKL-1 antibody (Abcam Inc., Cambridge, Mass.) or with rabbit anti-c-Myc antibody (Santa Cruz). Subsequently, the membrane was incubated with anti-rabbit or anti-goat IgG horseradish peroxidase-conjugated antibodies (Amersham-Pharmacia) for 1 h at room temperature. The 82 kDa DCAMKL-1 and 49 kDa c-Myc proteins were detected using ECL™ Western Blotting detection reagents (Amersham-Pharmacia). Actin (43 kDa), used as loading control was identified using a goat polyclonal IgG (Santa Cruz Biotechnology Inc., Santa Cruz, Calif.).
Immunohistochemistry. Heat Induced Epitope Retrieval was performed on 4 μm formalin-fixed paraffin-embedded sections utilizing a pressurized Decloaking Chamber (Biocare Medical) in citrate buffer (pH 6.0) at 99° C. for 18 min. (a) Brightfield: Slides were incubated in 3% hydrogen peroxide, then normal serum and BSA at room temperature for 20 min. After incubation with primary antibody [DCAMKL-1 C-terminal (Abcam), anti-c-Myc (Santa Cruz Biotechnologies), L-FABP (Santa Cruz Biotechnologies)], the slides were incubated in peroxidase-conjugated EnVision™+polymer detection kit (DAKO). Slides were developed with Diaminobenzidine (Sigma). (b) Fluorescence: Slides were first incubated in Image-iT FX signal enhancer (Invitrogen), followed by normal serum and BSA at room temperature for 20 min.
Xenograft tumor model. (a) Liposomal preparation: siRNA was administered into the xenografts after incorporation into 1,2-Dioleoyl-sn-Glycero-3-Phosphocholine (DOPC) (Avanti Polar Lipids, Alabaster, Ala.). DOPC and siRNA were mixed in the presence of excess tertiary butanol at a ratio of 1:10 (w/w) (siRNA/DOPC). Tween 20 (Sigma-Aldrich) was added to the mixture at a ratio of 1:19 Tween 20:siRNA/DOPC. The mixture was vortexed and frozen in an acetone/dry ice bath and lyophilized. Before administration, the siRNA preparation was reconstituted in 0.9% sterile saline and injected at a dose of 50 μl (5 μM) per injection. (b) Tumor therapy: Female athymic nude mice (NCr-nu) were purchased from the National Cancer Institute-Frederick Cancer Research and Development Center (Frederick, Md.) and housed in specific pathogen-free conditions.

HCV subgenomic replicon = experiment: HCV replication in GS5 cells (Huh7.5 with HCV subgenomic replicon); assay type: cell-based, hepatitis C virus; details: disruption of microtubules
Experimental: FIG. 61 illustrates that DCAMKL-1 is required for the HCV replication. A. siRNA against DCAMKL-1 (Si-DCAMKL1, 50 nM and 100 nM) or scrambled siRNA (SCR, 100 nM) were transfected into GS5 cells. Total RNAs were extracted and subjected to real-time quantitative PCR. The levels of HCV and DCAMKL-1 RNAs were considered arbitrary as one unit in untransfected GS5 cells (Cont). Actin mRNA in each sample was used as internal control for PCR. B. Western blot analysis of siRNAs tranfected and untransfected samples as indicated.
Induction of putative stem cell/pluripotency factors by HCV: Normal adult hepatocytes are fully differentiated cells and lack expression of pluripotency factors. However, these cells can be induced to proliferate rapidly after partial hepatectomy and can also be reprogrammed into stem-like cells by forced expression of a cocktail of transcription factors. Thus, the impact of HCV on expression pattern of stem/progenitor cell markers was investigated in GS5 cells, which are derived from hepatoma cell line (Huh7.5) and support constitutive replication of a subgenomic HCV replicon under G418 selection. The replicon expresses HCV nonstructural proteins NS3 through NS5B of the HCV-1a strain and green florescent protein (GFP)-NS5A chimera. Total lysates from parent Huh7.5 and GS5 cells were subjected to Western blot analysis (FIG. 59).
Putative intestinal stem cell marker DCAMKL1 is required for the HCV replication: The eccentric, punctate staining of HCV replication complexes consisting of most of the nonstructural proteins and cellular factors has been a puzzling question. It is known that these replication complexes associate with microtubules in order to replicate the HCV RNA. The DCAMKL1 protein, which binds and polymerizes tubulin into microtubule filaments, is considered as a putative marker for quiescent stem cells in the intestine, and its expression is increased in cancer stem cells. During confocal microscopy, most DCAMKL1 localization was consistently observed in the area containing replication complexes (indicated by NS5A-GFP) and high concentration of microtubules (FIG. 60). The perinuclear co-localization of DCAMKL1 with the NS5A-GFP (indicated by yellow stain) was also observed.

[3] = system: Pdx1-Cre; LSL-KRAS^G12D; p53^lox/+ mouse model of pancreatic neoplasia; details: inhibition of Notch signaling; cited from earlier work

For `OO` [hydrogen peroxide], the “PICSC cell death (% Dead/Live cells ratio)” value (PICSCs [1]) was “complete cell death”.
In the case of `N.N.[Cl][Pt][Cl]` [Cisplatin], the “PICSC cell death (% Dead/Live cells ratio)” value (PICSCs [1]) is reported as “increasing levels of PICSC cell death”.
For `O=C1C(=Cc2ccccc2F)CNCC1=Cc1ccccc1F` [EF24, 3,5-bis(2-fluorobenzylidene)piperidin-4-one], the anti-CSC growth properties (PICSC tumor xenografts) was “potent anti-CSC growth properties”, the “neurite formation, cell growth and cell death of PICSCs” value (PICSCs [2]; 1 μM) was “inhibited neurite formation, suppressed cell growth and induced cell death” and the tumor xenograft growth (HCT116 tumor xenografts) was “significantly inhibited”. The “PICSC cell death (% Dead/Live cells ratio)” value (PICSCs [1]) was “increasing levels of PICSC cell death”.
For `C[C@H](NC(=O)Cc1cc(F)cc(F)c1)C(=O)N[C@H](C(=O)OC(C)(C)C)c1ccccc1` [DAPT], the anti-CSC growth properties (PICSC tumor xenografts) was “potent anti-CSC growth properties” and the “PICSC cell death (% Dead/Live cells ratio)” value (PICSCs [1]) was “increasing levels of PICSC cell death”.
In the case of `CCc1c2c(nc3ccc(OC(=O)N4CCC(N5CCCCC5)CC4)cc13)-c1cc3c(c(=O)n1C2)COC(=O)[C@]3(O)CC` [CPT-11, Irinotecan], the “growth and survival of PICSCs” value (PICSCs [2]; 100 μM drug, 48 hours) is reported as “no significant effect” and the “PICSC cell death (% Dead/Live cells ratio)” value (PICSCs [1]) is reported as “no cell death”.
In the case of `CC[C@]1(O)C[C@@H]2CN(CCc3c([nH]c4ccccc34)[C@@](C(=O)OC)(c3cc4c(cc3OC)N(C)[C@H]3[C@@](O)(C(=O)OC)[C@H](OC(C)=O)[C@]5(CC)C=CCN6CC[C@]43[C@@H]65)C2)C1` [vinblastin, reference compound], the HCV replication (HCV subgenomic replicon) is reported as “inhibition”.
For `O=S1(=O)N[C@@]2(CN1CC(F)(F)F)[C@@H]1CC[C@H]2Cc2ccc(/C=C/CN3CCC(C(F)(F)F)CC3)cc2C1` [MRK-003], the tumor development [3] is given as “completely inhibited tumor development; also recorded: completely blocked tumor development”.
For `Nc1ccn([C@@H]2O[C@H](CO)[C@@H](O)C2(F)F)c(=O)n1` [Gemcitabine], the “PICSC cell death (% Dead/Live cells ratio)” value (PICSCs [1]) was “significant increase in PICSC cell death”.
With `COc1cc(/C=C/C(=O)CC(=O)/C=C/c2ccc(O)c(OC)c2)ccc1O` [curcumin] the “neurite formation, cell growth and cell death of PICSCs” value (PICSCs [2]; 30 μM) was “inhibited neurite formation, suppressed cell growth and induced cell death”.
